Laboratory results published in patent publication US8609700B2, “Pyridine compounds for controlling invertebrate pests I” (BASF SE, priority 2010, dated 2013).

How the values were obtained:
Assay type in all cases: in vivo
[1] = system: Silverleaf Whitefly (Bemisia argentifolii, Adult); assay: Silverleaf whitefly, cotton plants sprayed; conditions: 300 ppm, 3 days after treatment
Experimental: II.8 Silverleaf Whitefly (Bemisia argentifolii, Adult)
(§1) The active compounds were formulated in cyclohexanone as a 10,0000 ppm solution supplied in 1.3 ml ABgene® tubes. These tubes were inserted into an automated electrostatic sprayer equipped with an atomizing nozzle and they served as stock solutions for which lower dilutions were made in 50% acetone:50% water (vol/vol). A nonionic surfactant (Kinetic®) was included in the solution at a volume of 0.01% (vol/vol).
Cotton plants at the cotyledon stage (one plant per pot) were sprayed by an automated electrostatic plant sprayer equipped with an atomizing spray nozzle. The plants were dried in the sprayer fume hood and then removed from the sprayer. Each pot was placed into a plastic cup and 10 to 12 whitefly adults (approximately 3-5 days old) were introduced. The insects were collected using an aspirator and 0.6 cm, nontoxic Tygon® tubing (R-3603) connected to a barrier pipette tip. The tip, containing the collected insects, was then gently inserted into the soil containing the treated plant, allowing insects to crawl out of the tip to reach the foliage for feeding. Cups were covered with a reusable screened lid (150-micron mesh polyester screen PeCap from Tetko, Inc.). […] Mortality was assessed 3 days after treatment, compared to untreated control plants.

[2] = system: Brown Planthopper (Nilaparvata lugens); assay: Brown planthopper, rice seedlings sprayed; conditions: 500 ppm, after 72 hours
Experimental: II.7 Activity Against Brown Planthopper (Nilaparvata lugens)
The active compounds were formulated as a 50:50 (vol/vol) acetone:water solution. Surfactant (Alkamuls EL 620) was added at the rate of 0.1% (vol/vol).
Rice seedlings were cleaned and washed 24 h before spraying. Potted rice seedlings were sprayed with 5 ml test solution, air dried, placed in cages and inoculated with 10 adults. Treated rice plants were kept at 28-29° C. and relative humidity of 50-60%. Percent mortality was recorded after 72 hours.

[3] = system: Cotton Aphid (Aphis gossypii, Mixed Life Stages); assay: Cotton aphid, method b) (electrostatic sprayer); conditions: 300 ppm; infested cotton plants sprayed; after 5 days
Experimental: II.1 Cotton Aphid (Aphis gossypii, Mixed Life Stages)
as §1, with “sur25 factant” for “surfactant”
Cotton plants at the cotyledon stage were infested with aphids prior to treatment by placing a heavily infested leaf from the main aphid colony on top of each cotyledon. Aphids were allowed to transfer overnight to accomplish an infestation of 80-100 aphids per plant and the host leaf was removed. The infested plants were then sprayed by an automated electrostatic plant sprayer equipped with an atomizing spray nozzle. The plants were dried in the sprayer fume hood, removed from the sprayer, and then maintained in a growth room under fluorescent lighting in a 24-hr photoperiod at 25° C. and 20-40% relative humidity. Aphid mortality on the treated plants, relative to mortality on untreated control plants, was determined after 5 days.

[4] = system: Boll Weevil (Anthonomus grandis); assay: Boll weevil, insect diet in 24-well-microtiter plates; conditions: 120 h, test solution 2500 mg/L, sprayed onto insect diet, 5 days, read-out: mortality (egg and larval)
Experimental: II.5 Boll Weevil (Anthonomus grandis)
The compounds were formulated in 75:25 (vol/vol) water:DMSO.
For evaluating control of boll weevil (Anthonomus grandis) the test unit consisted of 24-well-microtiter plates containing an insect diet and 20-30 A. grandis eggs. Different concentrations of formulated compounds were sprayed onto the insect diet at 20 μl, using a custom built micro atomizer, at two replications. After application, the microtiter plates were incubated at 23±1° C. and 50±5% relative humidity for 5 days. Egg and larval mortality was then visually assessed.

O=C(Nc1cccnc1)c1sccc1C(F)(F)F [Compound 7]
mortality in comparison with untreated controls [1]: at least 75%

CN(C(=O)c1cccn1C)c1cccnc1 [Compound 14]
mortality in comparison with untreated controls [2]: at least 50%

O=C(Nc1cccnc1)c1cscc1C(F)(F)F [Compound 26]
mortality in comparison with untreated controls [3]: at least 75%

CN(C(=O)c1cc(Cl)sc1Cl)c1cccnc1 [Compound 28, 2,5-Dichloro-thiophene-3-carboxylic acid methyl-pyridin-3-yl-amide]
mortality at 2500 µg/mL [4]: ≥ 50%
